Measured values: patent US20230414546A1, “Combined Therapy Against Cancer” (UNIVERSITAT POLITÈCNICA DE CATALUNYA, priority 2020, published 2023)

What was measured:
osteosarcoma cell lines = conditions: in vitro, cited from earlier work
143.6 sarcospheres = experiment: Sarcosphere formation (cancer stem cells), 143.B; type: cell-based, human; conditions: 143.6 cells; treated at day 3 for 7 days; PTM 5 and 20 min, S3I-201 100 μM
Experimental: (§1) FIGS. 7A-7C. Synergic effect of the combined therapy on sarcosphere number reduction. The (A) MG-63 sarcospheres and (B) 143.6 sarcospheres formed were scored (size […]) and counted. Data represent the number of sarcospheres formed as mean and standard deviation of n=6 independent experiments (*p<0.01; **p<0.001; ****p<0.0001 one-way ANOVA). (C) Concentration of NO2- and H2O2 in micromolar concentration in PTM 5, 10 or 20 min.
(§2) Osteosarcoma cells MG-63 and 143.B were cultured in sarcosphere-forming conditions (Cancer Stem Cell (CSC) isolation standard method) for 3 days and then were incubated for another 7 days in contact with PTM according to the following parameters: Helium flow rate: 1 L/min; Gap between APPJ nozzle and CSC medium surface: 10 mm; Treatment times: between 5 and 20 minutes. The CSC Medium was DMEM/F-12 supplemented with GlutaMAX™ (1X; Gibco™, cat.no 10565018, Carlsbad, CA, USA), B-27 Supplement (1:50; Life Technologies), Heparin (1:1000; Sigma), human bEGF (20 ng/ml), human bFGF (10 ng/ml; GoldBio) and sodium pyruvate. The sarcospheres were treated at day 3 with PTM (5 and 20 min), with S3I-201 (100 μM) or with the combination of both for 7 days more.

[1] = test system: human 143B osteosarcoma cells; experiment: Murine orthotopic osteosarcoma model, tumor volume; type: in vivo; conditions: nude mice, tibia; daily para-tumoral 100 μL PTM—20 min; 5 mg/kg S3I-201 orally three times per week; versus control
Experimental: FIG. 8. […] Tumor volume of the different groups at final day (when tumors reach 1000 mm^3) . The one-way ANOVA was performed to determine the statistical significance between control and treated groups.
To investigate the role PTM in combination with S3I-201 in osteosarcoma disease development, we used a murine orthotopic osteosarcoma model in which human 143B osteosarcoma cells are injected into the tibia of immunodeficient mice. All in vivo tumor experiments were performed with female nude mice (NMRI-Foxn1 nu/nu mice from Janvier Labs). For orthotopic primary tumor growth, 50,000 cells were injected into the right tibia of 7 weeks old mice under isoflurane anaesthesia. Mice received a daily para-tumoral injection of 100 μL of PTM—20 min or 5 mg/kg S3I-201 (orally, dissolved in corn oil) three times per week, or a combination of both treatments. In parallel, control group received a daily para-tumoral injection of Ringer's Saline or 200 μL corn oil orally. Primary tumors were detected and quantified by bioluminescent in vivo imaging five days day after cell injection and subsequently once a week until the tumors reached the study endpoint (termination criterion: primary tumor total flux>[…] photons/s). […] The one-way ANOVA was performed to determine the statistical significance between control and treated groups.

MG-63 sarcospheres = experiment: Sarcosphere formation (cancer stem cells), MG-63; type: cell-based; conditions: treated at day 3 for 7 days, PTM 5 and 20 min, S3I-201 100 μM
Experimental: as §1, §2

[2] = Concentration of reactive species in plasma-treated hydrogel compositions; type: physicochemical; conditions: plasma treatment 180 seconds, concentration in the material
From the text: The RONS concentration is quantified either using the AR/HRP reagent method or the Griess reagent method for H2O2 and NOi, respectively. Also, plastic strips with test paper which allow quantification of H2O2 based on a redox reaction and NOi, also using the Griess reagent may be used when a hydrogel is used and the protein solution causes interferences with the AR/HRP reagent method or the Griess reagent method. These two methods give equivalent results.
A 50/50 blend of 0.5 weight % alginate and 2 weight % gelatin solutions were prepared (final concentration of 0.25% wt alginate and 1% wt gelatin). The mixture of alginate/gelatin was prepared is by vortexing in a ratio 1:1, 2% wt gelatin with 0.5% wt alginate for 2 minutes. Gelatin in powder is mixed with MilliQ water at 37° C. using magnetic stirring for 2 hours to obtain a 2% wt gelatin gel. 0.5% alginate was prepared by mixing alginate powder with MilliQ water using a SpeedMixer™ DAC 150.1 FVZ-K (SpeedMixer™, Germany) at 3500 r.p.m. for 15 min. The 0.25% wt alginate and 1% wt gelatin aqueous mixture was treated with an atmospheric pressure plasma jet kINPen IND® (Neoplas, Germany) operating with Argon to generate plasma. Treatment conditions: 1 Umin gas flow, 10 mm nozzle distance, and 180 seconds treatment. Treatment performed in 200 μL of mixture in a 96-well plate. […]

| H2O2 [2] [mg/L] | NO2− [2] [mg/L] | Compound | apoptosis (osteosarcoma cell lines; caspase-3 pathway) | cell growth and colony formation (osteosarcoma cell lines) | number / growth of sarcospheres at day 10 (143.6 sarcospheres) | tumor volume at final day [1] | number / growth of sarcospheres at day 10 (MG-63 sarcospheres) |
| --- | --- | --- | --- | --- | --- | --- | --- |
| – | – | Cc1ccc(S(=O)(=O)OCC(=O)Nc2ccc(C(=O)O)c(O)c2)cc1 [S3I-201] | apoptosis enhancement via the caspase-3 pathway | significant inhibition of cell growth and colony formation | significantly reduced | display a tumor volume in a similar way that control | significantly reduced |
| 10.3 | 2.6 | Water | – | – | – | – | – |
